Experimental data published in patent US9540343B2 (Gilead Sciences, Inc., priority 2011, dated 2017).

Legend:
HIV-IIIb = assay: Test A: Antiviral assay in MT4 cells; format: cell-based, HIV-1; conditions: Human immunodeficiency virus 1, IIIB, MT4, 120 h, read-out: % inhibition at 2 μM, percent inhibition of virus-induced cell killing, from dose response curve at 2 uM drug; MT-4 cells infected with HIV-IIIb, 5 days, CellTiter-Glo
in vitro = conditions: human, uninfected MT-4 cells, CC50 (nM), same protocol as Test A, CellTiter-Glo
How it was run: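 Cytoprotection read-out: CellTiter-Glo chemiluminescence after 5 days at 37 °C of HIV-IIIb-infected MT-4 cells (m.o.i. 0.003) with compound in 10-point 3-fold dilutions, quadruplicate, 10% FBS. Cytotoxicity (CC50) measured identically without virus.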

NC(=O)c1cc(-c2cccnc2[C@H](Cc2cccc(F)c2)NC(=O)Cn2nc(C(F)(F)F)cc2Br)ccc1F [Example 222B, (S)-5-(2-(1-(2-(5-bromo-3-(trifluoromethyl)-1H-pyrazol-1-yl)acetamido)-2-(3-fluorophenyl)ethyl)pyridin-3-yl)-2-fluorobenzamide]
inhibition at 2 µM (HIV-IIIb): 21% | CC50 at 5 days (in vitro): 25600 nM

CC(C)Oc1ccc(-c2cccnc2[C@H](Cc2cc(F)cc(F)c2)NC(=O)Cn2nc(C(F)F)c3c2C(F)(F)C2CC32)cc1 (stereo partly drawn) [Example 224, 2-(3-(difluoromethyl)-5,5-difluoro-3b,4,4a,5-tetrahydro-1H-cyclopropa[3,4]cyclopenta[1,2-c]pyrazol-1-yl)-N—((S)-2-(3,5-difluorophenyl)-1-(3-(4-isopropoxyphenyl)pyridin-2-yl)ethyl)acetamide]
inhibition at 2 µM (HIV-IIIb): 17% | CC50 at 5 days (in vitro): 20400 nM

NC(=O)c1cccc(-c2cccnc2[C@H](Cc2cc(F)cc(F)c2)NC(=O)C2CC23C(=O)Nc2ccccc23)c1 (stereo partly drawn) [Example 225, N—((S)-1-(3-(3-carbamoylphenyl)pyridin-2-yl)-2-(3,5-difluorophenyl)ethyl)-2′-oxospiro[cyclopropane-1,3′-indoline]-2-carboxamide]
inhibition at 2 µM (HIV-IIIb): 15% | CC50 at 5 days (in vitro): 23000 nM

NC(=O)c1cccc(-c2cccnc2[C@H](Cc2cc(F)cc(F)c2)NC(=O)Cn2ccc3cnc(N)nc32)c1 [Example 226C, (S)-3-(2-(1-(2-(2-amino-7H-pyrrolo[2,3-d]pyrimidin-7-yl)acetamido)-2-(3,5-difluorophenyl)ethyl)pyridin-3-yl)benzamide]
inhibition at 2 µM (HIV-IIIb): 0% | CC50 at 5 days (in vitro): > 53000 nM

CC(C)(C)OC(=O)N1Cc2c(C(F)(F)F)nn(CC(=O)N[C@@H](Cc3cc(F)cc(F)c3)c3ncccc3-c3ccc(F)c(C(N)=O)c3)c2C1 [Example 227, (S)-tert-butyl 1-(2-((1-(3-(3-carbamoyl-4-fluorophenyl)pyridin-2-yl)-2-(3,5-difluorophenyl)ethyl)amino)-2-oxoethyl)-3-(trifluoromethyl)-4,6-dihydropyrrolo[3,4-c]pyrazole-5(1H)-carboxylate]
inhibition at 2 µM (HIV-IIIb): 1% | CC50 at 5 days (in vitro): 14300 nM

NC(=O)c1cc(-c2cccnc2[C@H](Cc2cccc(F)c2)NC(=O)Cn2nc(C(F)(F)F)c3c2CCSC3)ccc1F [Example 228B, (S)-2-fluoro-5-(2-(2-(3-fluorophenyl)-1-(2-(3-(trifluoromethyl)-6,7-dihydrothiopyrano[4,3-c]pyrazol-1(4H)-yl)acetamido)ethyl)pyridin-3-yl)benzamide]
inhibition at 2 µM (HIV-IIIb): 51% | CC50 at 5 days (in vitro): 23400 nM

NC(=O)c1cc(-c2cccnc2[C@H](Cc2cccc(F)c2)NC(=O)Cn2nc(C(F)(F)F)c3c2CCCC3)ccc1F [Example 229, (S)-2-fluoro-5-(2-(2-(3-fluorophenyl)-1-(2-(3-(trifluoromethyl)-4,5,6,7-tetrahydro-1H-indazol-1-yl)acetamido)ethyl)pyridin-3-yl)benzamide]
inhibition at 2 µM (HIV-IIIb): 95% | CC50 at 5 days (in vitro): 18600 nM

O=C(Cn1nc(C(F)F)c2c1C(F)(F)C1CC21)N[C@@H](Cc1cc(F)cc(F)c1)c1ncccc1-c1ccc(OC(F)(F)F)cc1 (stereo partly drawn) [Example 230, 2-(3-(difluoromethyl)-5,5-difluoro-3b,4,4a,5-tetrahydro-1H-cyclopropa[3,4]cyclopenta[1,2-c]pyrazol-1-yl)-N—((S)-2-(3,5-difluorophenyl)-1-(3-(4-(trifluoromethoxy)phenyl)pyridin-2-yl)ethyl)acetamide]
inhibition at 2 µM (HIV-IIIb): 66% | CC50 at 5 days (in vitro): 14000 nM

O=C(Cn1nc(C(F)F)c2c1C(F)(F)C1CC21)N[C@@H](Cc1cc(F)cc(F)c1)c1ncccc1-c1ccc(OC(F)F)cc1 (stereo partly drawn) [Example 231, N—((S)-1-(3-(4-(difluoromethoxy)phenyl)pyridin-2-yl)-2-(3,5-difluorophenyl)ethyl)-2-(3-(difluoromethyl)-5,5-difluoro-3b,4,4a,5-tetrahydro-1H-cyclopropa[3,4]cyclopenta[1,2-c]pyrazol-1-yl)acetamide]
inhibition at 2 µM (HIV-IIIb): 79% | CC50 at 5 days (in vitro): 43200 nM
